Test results reported in patent US12522827B2 (priority 2021, dated 2026).
Where two headings read alike, the source gives them in different places.

Assays:
PR8 = assay: microbe, parasite or virus in culture; format: cell-based, Influenza A/PR/8/34 (PR8) H1N1 virus
[1] = system: A/WSN/33 (H1N1) virus with NA H274Y resistance mutation; format: cell-based, Influenza A/WSN/33 (H1N1)

## CCOC(=O)C1=C[C@@H](OC(CC)CC)[C@H](NC(C)=O)[C@@H](N)C1 [Oseltamivir]
PR8
  increase of IC50: 1000 fold
PR8; Influenza A virus, PR8, read-out: IC50 after serial passages
  IC50: 50000 nM
PR8; Influenza A virus, PR8, read-out: starting IC50
  IC50: 41 nM
[1]
  IC50: 53000 nM

## TACTtactgacaGCC [LNA9]
PR8; read-out: IC50 after serial passages
  IC50: 0.016 nM
PR8; read-out: IC50 at start of passaging
  IC50: 0.018 nM
[1]
  potency and efficacy: picomolar activity
